Laboratory results: ChEMBL document CHEMBL1201862, “PubChem BioAssay data set” (2004)
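The compound was tested at five concentrations on cells cultured in 96-well plates, with a 48-hour exposure period. GI50: concentration for 50% inhibition of growth.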 Activity calls are given as the source filed them. No stated cut-off is given here; in the data, active = GI50 up to about 1.1 µM and inactive = higher.

Assays:
Assay in all cases: inhibition of tumour cell growth, NCI panel, 48 h
EKVX = system: EKVX
K562 = system: K562
Malme-3M = system: Malme-3M
NCI-H226 = system: NCI-H226
HOP-92 = system: HOP-92
OVCAR-5 = system: OVCAR-5
UACC-62 = system: UACC-62
OVCAR-8 = system: OVCAR-8
OVCAR-4 = system: OVCAR-4
SF-539 = system: SF-539
SN12C = system: SN12C
UACC-257 = system: UACC-257
NCI-H522 = system: NCI-H522
HCT-116 = system: HCT-116
M14 = system: M14
HOP-62 = system: HOP-62

Compound | GI50 (EKVX) | GI50 (K562) | GI50 (Malme-3M) | GI50 (NCI-H226) | GI50 (HOP-92) | GI50 (OVCAR-5) | GI50 (UACC-62) | GI50 (OVCAR-8) | GI50 (OVCAR-4) | GI50 (SF-539) | GI50 (SN12C) | GI50 (UACC-257) | GI50 (NCI-H522) | GI50 (HCT-116) | GI50 (M14) | GI50 (HOP-62)
O=C(O)C1=CCCc2ccc3ccccc3c21 | > 100 µM (inactive) | > 100 µM (inactive) | > 100 µM (inactive) | > 100 µM (inactive) | > 100 µM (inactive) | > 100 µM (inactive) | > 100 µM (inactive) | > 100 µM (inactive) | > 100 µM (inactive) | > 100 µM (inactive) | > 100 µM (inactive) | > 100 µM (inactive) | > 100 µM (inactive) | > 100 µM (inactive) | > 100 µM (inactive) | –
CN(C)CCSc1cccc(-c2cc(-c3cccc(SCCN(C)C)c3)nc(SCCN(C)C)n2)c1 | 2.06 µM (inactive) | 1.49 µM (inactive) | 1.87 µM (inactive) | – | 0.551 µM (active) | 6.79 µM (inactive) | 17.5 µM (inactive) | 1.42 µM (inactive) | 1.67 µM (inactive) | 1.77 µM (inactive) | 12.1 µM (inactive) | 1.59 µM (inactive) | 1.61 µM (inactive) | 1.17 µM (inactive) | 1.62 µM (inactive) | 16.3 µM (inactive)
NC(=O)/C(=N\NC(=O)c1cc2ccccc2cc1O)C1C(=O)N(c2ccccc2)N=C1N (stereo not drawn) | 32.2 µM (inactive) | – | 58.7 µM (inactive) | 24.2 µM (inactive) | 22.3 µM (inactive) | 22.2 µM (inactive) | 15.2 µM (inactive) | 26.3 µM (inactive) | 22.6 µM (inactive) | – | 40.5 µM (inactive) | 23.4 µM (inactive) | – | 27.2 µM (inactive) | 31.5 µM (inactive) | 34 µM (inactive)
CCOC(=O)N1CCc2cc(OC)c(OC)cc2/C1=C/c1ccc(OC)c(OC)c1 | 79.4 µM (inactive) | 35.5 µM (inactive) | 20 µM (inactive) | 69.5 µM (inactive) | 30.5 µM (inactive) | 94 µM (inactive) | 55.8 µM (inactive) | > 10 µM (inactive) | – | > 100 µM (inactive) | 35.6 µM (inactive) | 37.2 µM (inactive) | 40.1 µM (inactive) | 38.4 µM (inactive) | 82.8 µM (inactive) | 84.5 µM (inactive)
CC(=O)[O-].[O-]c1c(Cl)cc(Cl)cc1/C=N/Nc1ccccn1.[Zn+2] | 2.18 µM (inactive) | 0.372 µM (active) | 0.76 µM (active) | > 100 µM (inactive) | 0.316 µM (active) | 2 µM (inactive) | 0.435 µM (active) | 0.237 µM (active) | – | 1.26 µM (inactive) | 5.82 µM (inactive) | 0.418 µM (active) | 0.41 µM (active) | 0.338 µM (active) | 0.387 µM (active) | 1.81 µM (inactive)
